According to ChEMBL document CHEMBL5096151, “Phytocannabinoid Pharmacology: Medicinal Properties of Cannabis sativa Constituents Aside from the "Big Two"” (J Nat Prod, 2021):

Columns and labels:
[1] = target: T1, Transient receptor potential cation channel subfamily V member 1 (Homo sapiens, UniProt Q8NER1); assay: Agonist activity at ionomycin-stimulated TRPV1 (unknown origin) activation
[2] = target: T1, Transient receptor potential cation channel subfamily V member 1; assay: Agonist activity at ionomycin-stimulated TRPV1 (unknown origin) activation assessed as efficacy relative to control
[3] = target: T2, Transient receptor potential cation channel subfamily V member 3 (Homo sapiens, UniProt Q8NET8); assay: Agonist activity at ionomycin-stimulated TRPV3 (unknown origin) activation
T2 sequence (Q8NET8 whole entry): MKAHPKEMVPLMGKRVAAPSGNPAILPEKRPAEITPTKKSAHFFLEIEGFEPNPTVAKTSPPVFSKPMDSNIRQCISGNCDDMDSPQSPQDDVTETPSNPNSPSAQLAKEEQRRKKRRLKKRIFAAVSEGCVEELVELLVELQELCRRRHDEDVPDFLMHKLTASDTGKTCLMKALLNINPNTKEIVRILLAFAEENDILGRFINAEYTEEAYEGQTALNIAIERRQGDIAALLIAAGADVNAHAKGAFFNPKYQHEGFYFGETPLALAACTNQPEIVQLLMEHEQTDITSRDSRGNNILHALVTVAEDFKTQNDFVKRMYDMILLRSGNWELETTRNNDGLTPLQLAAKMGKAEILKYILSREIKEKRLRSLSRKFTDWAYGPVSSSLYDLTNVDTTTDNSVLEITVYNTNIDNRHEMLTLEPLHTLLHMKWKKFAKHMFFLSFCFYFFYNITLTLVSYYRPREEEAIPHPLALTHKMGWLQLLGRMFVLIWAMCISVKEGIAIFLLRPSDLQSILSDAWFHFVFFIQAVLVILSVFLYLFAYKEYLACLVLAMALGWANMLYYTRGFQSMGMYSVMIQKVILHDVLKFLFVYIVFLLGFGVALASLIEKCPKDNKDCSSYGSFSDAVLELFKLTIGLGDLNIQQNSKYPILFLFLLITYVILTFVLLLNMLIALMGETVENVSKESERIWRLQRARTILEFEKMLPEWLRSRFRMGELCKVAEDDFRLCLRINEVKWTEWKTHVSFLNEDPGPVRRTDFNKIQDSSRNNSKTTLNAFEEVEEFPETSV

[4] = target: T3, Transient receptor potential cation channel subfamily V member 3 (Homo sapiens) (UniProt Q8NET8); assay: Agonist activity at ionomycin-stimulated TRPV3 (unknown origin) activation assessed as efficacy relative to control
T3 sequence (whole entry): T2 sequence (Q8NET8 whole entry)

[5] = target: T4, Transient receptor potential cation channel subfamily A member 1 (Homo sapiens, UniProt O75762); assay: Agonist activity at TRPA1 (unknown origin) activation
T4 sequence (O75762 whole entry): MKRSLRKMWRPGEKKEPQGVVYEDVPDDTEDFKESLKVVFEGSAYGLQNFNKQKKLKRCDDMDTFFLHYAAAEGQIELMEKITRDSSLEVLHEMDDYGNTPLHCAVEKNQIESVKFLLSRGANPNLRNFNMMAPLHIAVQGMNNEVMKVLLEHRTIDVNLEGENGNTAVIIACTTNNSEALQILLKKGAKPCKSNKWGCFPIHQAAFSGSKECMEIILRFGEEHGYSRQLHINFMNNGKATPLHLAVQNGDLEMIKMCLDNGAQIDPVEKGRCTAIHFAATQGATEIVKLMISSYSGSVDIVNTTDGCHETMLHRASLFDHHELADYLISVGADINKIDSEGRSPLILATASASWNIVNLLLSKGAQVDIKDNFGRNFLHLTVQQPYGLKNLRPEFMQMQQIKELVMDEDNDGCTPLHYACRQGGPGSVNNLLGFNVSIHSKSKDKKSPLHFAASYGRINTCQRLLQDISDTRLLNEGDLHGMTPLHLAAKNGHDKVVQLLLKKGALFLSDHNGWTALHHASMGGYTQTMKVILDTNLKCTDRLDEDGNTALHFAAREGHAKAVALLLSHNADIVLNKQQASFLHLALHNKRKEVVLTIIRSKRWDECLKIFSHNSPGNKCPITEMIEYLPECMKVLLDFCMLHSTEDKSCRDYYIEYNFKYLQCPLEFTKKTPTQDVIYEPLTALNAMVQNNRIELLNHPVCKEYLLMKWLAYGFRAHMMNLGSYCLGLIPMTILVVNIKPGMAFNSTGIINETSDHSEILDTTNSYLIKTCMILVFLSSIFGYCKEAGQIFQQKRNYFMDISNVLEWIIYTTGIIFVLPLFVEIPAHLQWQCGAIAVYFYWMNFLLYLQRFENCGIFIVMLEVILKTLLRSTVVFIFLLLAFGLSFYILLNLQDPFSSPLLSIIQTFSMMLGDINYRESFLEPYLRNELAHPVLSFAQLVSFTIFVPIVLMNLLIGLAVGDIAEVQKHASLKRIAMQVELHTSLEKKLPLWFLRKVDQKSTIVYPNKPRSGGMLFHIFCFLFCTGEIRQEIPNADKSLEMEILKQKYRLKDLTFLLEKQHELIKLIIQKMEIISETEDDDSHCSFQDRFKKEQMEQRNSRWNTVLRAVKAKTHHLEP

[6] = target: T4, Transient receptor potential cation channel subfamily A member 1; assay: Agonist activity at TRPA1 (unknown origin) channel desensitization in presence of isothiocyanate
[7] = target: T5, G-protein coupled receptor 6 (Homo sapiens, UniProt P46095); assay: Binding affinity to human GPR6 expressed in HEK293 cells assessed as reduction in cAMP level incubated for 1 hr by HTRF assay; type: cell-based
T5 sequence (P46095 whole entry): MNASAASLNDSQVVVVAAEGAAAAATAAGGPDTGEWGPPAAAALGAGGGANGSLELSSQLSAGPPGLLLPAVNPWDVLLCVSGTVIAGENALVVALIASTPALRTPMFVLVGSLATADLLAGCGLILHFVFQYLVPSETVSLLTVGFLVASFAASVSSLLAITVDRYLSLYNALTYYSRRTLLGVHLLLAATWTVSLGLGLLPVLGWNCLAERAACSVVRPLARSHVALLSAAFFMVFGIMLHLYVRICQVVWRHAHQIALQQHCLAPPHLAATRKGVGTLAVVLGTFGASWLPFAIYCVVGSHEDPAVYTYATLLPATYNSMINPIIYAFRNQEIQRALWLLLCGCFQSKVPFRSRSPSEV

[8] = target: T6, G-protein coupled receptor 55 (Homo sapiens, UniProt Q9Y2T6); assay: Binding affinity to human GPR55 expressed in HEK293 cells assessed as LPI-stimulated ERK1/2 phosphorylation; type: cell-based
T6 sequence (Q9Y2T6 whole entry): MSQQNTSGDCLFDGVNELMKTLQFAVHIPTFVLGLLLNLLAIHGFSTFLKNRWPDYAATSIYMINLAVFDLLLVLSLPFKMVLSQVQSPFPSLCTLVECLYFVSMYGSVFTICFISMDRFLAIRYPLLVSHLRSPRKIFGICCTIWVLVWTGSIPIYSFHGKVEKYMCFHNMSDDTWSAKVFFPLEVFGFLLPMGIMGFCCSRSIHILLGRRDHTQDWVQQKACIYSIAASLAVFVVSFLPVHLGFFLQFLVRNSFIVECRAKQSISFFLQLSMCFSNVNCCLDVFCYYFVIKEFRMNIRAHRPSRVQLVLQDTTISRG

[9] = target: T5, G-protein coupled receptor 6; assay: Binding affinity to human GPR6 expressed in HEK293 cells assessed as reduction in cAMP level by measuring efficacy incubated for 1 hr by HTRF assay relative to control; type: cell-based
[10] = target: T6, G-protein coupled receptor 55; assay: Binding affinity to human GPR55 expressed in HEK293 cells assessed as LPI-stimulated ERK1/2 phosphorylation by measuring efficacy relative to control; type: cell-based
Cytochrome P450 1A1 = Cytochrome P450 1A1 (Homo sapiens, UniProt P04798); assay: Inhibition of recombinant CYP1A1 (unknown origin) preincubated with NADPH for 20 mins and measured after 30 min; type: ADME
Cytochrome P450 1A1, sequence (P04798 whole entry): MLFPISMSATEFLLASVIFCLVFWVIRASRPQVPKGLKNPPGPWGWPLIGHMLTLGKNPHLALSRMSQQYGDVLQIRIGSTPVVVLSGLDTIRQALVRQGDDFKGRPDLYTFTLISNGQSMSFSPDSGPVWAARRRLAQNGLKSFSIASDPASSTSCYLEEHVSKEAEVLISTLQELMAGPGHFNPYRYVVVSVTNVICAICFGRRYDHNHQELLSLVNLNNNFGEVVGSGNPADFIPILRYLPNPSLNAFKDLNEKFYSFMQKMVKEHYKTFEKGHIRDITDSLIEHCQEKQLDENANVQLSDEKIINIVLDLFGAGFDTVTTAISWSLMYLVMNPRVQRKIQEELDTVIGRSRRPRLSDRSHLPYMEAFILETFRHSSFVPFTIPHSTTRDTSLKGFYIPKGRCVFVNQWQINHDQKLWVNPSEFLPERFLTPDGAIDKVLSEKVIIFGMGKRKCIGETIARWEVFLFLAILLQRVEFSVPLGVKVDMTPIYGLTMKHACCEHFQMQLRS

Cytochrome P450 2B6 = target: T7, Cytochrome P450 2B6 (Homo sapiens, UniProt P20813); assay: Mixed inhibition of recombinant CYP2B6 (unknown origin) using coumarin as substrate in presence of NADPH-generating system by Lineweaver-burk plots analysis; type: ADME
T7 sequence (P20813 whole entry): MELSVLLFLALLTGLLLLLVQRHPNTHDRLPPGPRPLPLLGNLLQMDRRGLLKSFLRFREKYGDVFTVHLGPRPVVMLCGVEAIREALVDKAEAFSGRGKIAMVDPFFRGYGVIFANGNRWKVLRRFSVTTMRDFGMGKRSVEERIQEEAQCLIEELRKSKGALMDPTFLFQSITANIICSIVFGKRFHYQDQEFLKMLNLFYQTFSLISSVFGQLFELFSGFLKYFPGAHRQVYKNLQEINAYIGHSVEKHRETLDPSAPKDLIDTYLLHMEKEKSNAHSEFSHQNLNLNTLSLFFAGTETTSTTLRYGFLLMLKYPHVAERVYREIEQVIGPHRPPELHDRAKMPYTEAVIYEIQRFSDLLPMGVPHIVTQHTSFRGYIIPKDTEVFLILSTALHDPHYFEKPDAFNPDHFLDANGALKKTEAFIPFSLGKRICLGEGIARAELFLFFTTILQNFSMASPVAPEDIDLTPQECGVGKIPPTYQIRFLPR

Cytochrome P450 2C19 = Cytochrome P450 2C19 (Homo sapiens, UniProt P33261); assay: Mixed inhibition of CYP2C19 (unknown origin) by measuring inhibition constant; type: ADME
Cytochrome P450 2C19, sequence (P33261 whole entry): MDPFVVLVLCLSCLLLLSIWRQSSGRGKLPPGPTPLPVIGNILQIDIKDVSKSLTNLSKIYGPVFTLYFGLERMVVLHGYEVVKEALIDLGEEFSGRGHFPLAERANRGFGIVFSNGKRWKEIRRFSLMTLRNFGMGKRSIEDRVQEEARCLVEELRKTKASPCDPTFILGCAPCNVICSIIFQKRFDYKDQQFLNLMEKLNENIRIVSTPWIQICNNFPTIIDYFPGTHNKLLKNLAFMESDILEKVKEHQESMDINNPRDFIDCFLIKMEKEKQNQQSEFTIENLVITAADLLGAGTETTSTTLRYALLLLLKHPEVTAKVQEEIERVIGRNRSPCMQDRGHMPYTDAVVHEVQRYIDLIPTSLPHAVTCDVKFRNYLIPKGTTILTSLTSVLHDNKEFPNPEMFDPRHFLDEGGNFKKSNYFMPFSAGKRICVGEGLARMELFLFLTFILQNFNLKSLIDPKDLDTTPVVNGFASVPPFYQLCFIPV

T1 sequence (Q8NER1 whole entry): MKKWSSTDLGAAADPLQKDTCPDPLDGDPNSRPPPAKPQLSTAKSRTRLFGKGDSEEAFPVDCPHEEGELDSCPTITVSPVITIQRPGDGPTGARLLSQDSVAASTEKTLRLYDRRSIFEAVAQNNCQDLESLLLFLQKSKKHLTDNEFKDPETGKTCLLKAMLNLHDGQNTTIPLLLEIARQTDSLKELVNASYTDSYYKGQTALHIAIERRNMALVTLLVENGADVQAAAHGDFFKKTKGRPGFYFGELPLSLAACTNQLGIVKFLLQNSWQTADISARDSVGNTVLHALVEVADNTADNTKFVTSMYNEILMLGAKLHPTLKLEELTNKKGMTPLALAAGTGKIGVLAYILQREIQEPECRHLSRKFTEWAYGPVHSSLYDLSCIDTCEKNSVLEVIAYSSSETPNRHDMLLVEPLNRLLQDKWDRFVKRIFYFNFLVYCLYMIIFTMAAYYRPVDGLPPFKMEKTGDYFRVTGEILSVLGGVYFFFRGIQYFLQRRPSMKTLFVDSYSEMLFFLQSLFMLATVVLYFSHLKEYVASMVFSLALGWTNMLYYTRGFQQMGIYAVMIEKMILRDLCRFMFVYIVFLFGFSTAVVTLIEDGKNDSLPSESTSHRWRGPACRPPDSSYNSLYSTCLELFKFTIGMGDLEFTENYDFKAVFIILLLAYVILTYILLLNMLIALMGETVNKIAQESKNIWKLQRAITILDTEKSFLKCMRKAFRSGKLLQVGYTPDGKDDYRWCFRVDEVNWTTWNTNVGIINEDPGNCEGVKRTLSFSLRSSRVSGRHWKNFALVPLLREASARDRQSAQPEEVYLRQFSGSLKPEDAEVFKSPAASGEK

C=C(C)[C@@H]1CCC(C)=C[C@H]1c1c(O)cc(CCC)cc1O [CANNABIDIVARIN]
EC50 [1]: 3600 nM
Efficacy [2]: 21%
EC50 [3]: 1700 nM
Efficacy [4]: 16%
EC50 [5]: 420 nM
IC50 [6]: 1300 nM
EC50 [7]: 2400 nM
EC50 [8]: 400 nM
Efficacy [9]: 90%
Efficacy [10]: 49%
IC50 (Cytochrome P450 1A1): 60 nM
Ki (Cytochrome P450 2B6): 1300 nM
Ki (Cytochrome P450 2C19): 1400 nM
